Assay results: ChEMBL document CHEMBL3885881, “DrugMatrix”

Organism: Rattus norvegicus
Assay: DrugMatrix - Regimen: Daily Repeat
Type: toxicity, organism-based, Sprague-Dawley
Set-up: regimen Daily Repeat, gender Male, age 6-8 weeks
Details: in vivo, po, route oral GAVAGE, vehicle .5 % CMC; for ABSOLUTE BASOPHIL / ABSOLUTE EOSINOPHIL / ABSOLUTE LYMPHOCYTE / ABSOLUTE MONOCYTE / ABSOLUTE SEGMENTED NEUTROPHIL / BASOPHIL / EOSINOPHIL / ERYTHROCYTE COUNT / HEMATOCRIT / HEMOGLOBIN / LEUKOCYTE COUNT / LYMPHOCYTE / MEAN CORPUSCULAR HEMOGLOBIN / MEAN CORPUSCULAR HEMOGLOBIN CONCENTRATION / MEAN CORPUSCULAR VOLUME / MONOCYTE / NEUTROPHIL / NUCLEATED RED BLOOD CELLS / PLATELET COUNT: tissue Blood; for ALANINE AMINOTRANSFERASE / ALBUMIN / ALKALINE PHOSPHATASE / ASPARTATE AMINOTRANSFERASE / BLOOD UREA NITROGEN / CARBON DIOXIDE / CHLORIDE / CHOLESTEROL / CREATINE PHOSPHOKINASE / CREATININE / GLUCOSE / LACTATE DEHYDROGENASE / LIPASE / PHOSPHORUS / POTASSIUM / SODIUM / TOTAL BILIRUBIN / TOTAL PROTEIN / URIC ACID: tissue Plasma
[1] = 100 mg/kg, 120 h, dose level Low, time 5 day
[2] = 1503 mg/kg, 72 h, dose level High, time 3 day
[3] = 1503 mg/kg, 120 h, dose level High, time 5 day

## Cl.NC[C@H]1CC[C@H](C(=O)Oc2ccc(CCC(=O)O)cc2)CC1 [CETRAXATE HYDROCHLORIDE]
[1]
  ABSOLUTE BASOPHIL: 0 CELLS/uL
  ABSOLUTE EOSINOPHIL: 157.33 CELLS/uL
  ABSOLUTE LYMPHOCYTE: 16804.67 CELLS/uL
  ABSOLUTE MONOCYTE: 401.67 CELLS/uL
  ABSOLUTE SEGMENTED NEUTROPHIL: 1803 CELLS/uL
  BASOPHIL: 0%
  EOSINOPHIL: 0.67%
  ERYTHROCYTE COUNT: 5.83 x10E6/uL
  HEMATOCRIT: 37.17%
  HEMOGLOBIN: 13.9 G/DL
  LEUKOCYTE COUNT: 19.17 x10E3/uL
  LYMPHOCYTE: 88.33%
  MEAN CORPUSCULAR HEMOGLOBIN: 23.87 pg
  MEAN CORPUSCULAR HEMOGLOBIN CONCENTRATION: 37.4 G/DL
  MEAN CORPUSCULAR VOLUME: 63.73 fL
  MONOCYTE: 2%
  NEUTROPHIL: 9%
  NUCLEATED RED BLOOD CELLS: 0 /100WBC
  PLATELET COUNT: 1287.67 x10E3/uL
  ALANINE AMINOTRANSFERASE: 53.67 u/L
  ALBUMIN: 4.23 G/DL
  ALKALINE PHOSPHATASE: 376.33 u/L
  ASPARTATE AMINOTRANSFERASE: 93.67 u/L
  BLOOD UREA NITROGEN: 19.33 mg/dL
  CARBON DIOXIDE: 27 mmol/L
  CHLORIDE: 104.67 MEQ/L
  CHOLESTEROL: 78.67 mg/dL
  CREATINE PHOSPHOKINASE: 449.67 u/L
  CREATININE: 0.23 mg/dL
  GLUCOSE: 160.33 mg/dL
  LACTATE DEHYDROGENASE: 370.33 u/L
  LIPASE: 9.67 u/L
  PHOSPHORUS: 13.2 mg/dL
  POTASSIUM: 6.82 MEQ/L
  SODIUM: 143.93 MEQ/L
  TOTAL BILIRUBIN: 0.17 mg/dL
  TOTAL PROTEIN: 5.97 G/DL
  URIC ACID: 2.07 mg/dL
[2]
  ABSOLUTE BASOPHIL: 0 CELLS/uL
  ABSOLUTE EOSINOPHIL: 121 CELLS/uL
  ABSOLUTE LYMPHOCYTE: 13133.33 CELLS/uL
  ABSOLUTE MONOCYTE: 333 CELLS/uL
  ABSOLUTE SEGMENTED NEUTROPHIL: 979.33 CELLS/uL
  BASOPHIL: 0%
  EOSINOPHIL: 1%
  ERYTHROCYTE COUNT: 5.73 x10E6/uL
  HEMATOCRIT: 36.13%
  HEMOGLOBIN: 13.17 G/DL
  LEUKOCYTE COUNT: 14.57 x10E3/uL
  LYMPHOCYTE: 90%
  MEAN CORPUSCULAR HEMOGLOBIN: 23.03 pg
  MEAN CORPUSCULAR HEMOGLOBIN CONCENTRATION: 36.43 G/DL
  MEAN CORPUSCULAR VOLUME: 63.13 fL
  MONOCYTE: 2.33%
  NEUTROPHIL: 6.67%
  NUCLEATED RED BLOOD CELLS: 0.33 /100WBC
  PLATELET COUNT: 1198.67 x10E3/uL
  ALANINE AMINOTRANSFERASE: 68 u/L
  ALBUMIN: 4.1 G/DL
  ALKALINE PHOSPHATASE: 375.67 u/L
  ASPARTATE AMINOTRANSFERASE: 167.67 u/L
  BLOOD UREA NITROGEN: 17.67 mg/dL
  CARBON DIOXIDE: 25 mmol/L
  CHLORIDE: 101.33 MEQ/L
  CHOLESTEROL: 63.67 mg/dL
  CREATINE PHOSPHOKINASE: 4593 u/L
  CREATININE: 0.28 mg/dL
  GLUCOSE: 200 mg/dL
  LACTATE DEHYDROGENASE: 387 u/L
  LIPASE: 10.33 u/L
  PHOSPHORUS: 12.87 mg/dL
  POTASSIUM: 6.87 MEQ/L
  SODIUM: 143.37 MEQ/L
  TOTAL BILIRUBIN: 0.3 mg/dL
  TOTAL PROTEIN: 5.53 G/DL
  URIC ACID: 2.37 mg/dL
[3]
  ABSOLUTE BASOPHIL: 0 CELLS/uL
  ABSOLUTE EOSINOPHIL: 225.33 CELLS/uL
  ABSOLUTE LYMPHOCYTE: 13517.67 CELLS/uL
  ABSOLUTE MONOCYTE: 404.33 CELLS/uL
  ABSOLUTE SEGMENTED NEUTROPHIL: 1186 CELLS/uL
  BASOPHIL: 0%
  EOSINOPHIL: 1.33%
  ERYTHROCYTE COUNT: 6.38 x10E6/uL
  HEMATOCRIT: 39.27%
  HEMOGLOBIN: 14.57 G/DL
  LEUKOCYTE COUNT: 15.33 x10E3/uL
  LYMPHOCYTE: 88.33%
  MEAN CORPUSCULAR HEMOGLOBIN: 22.83 pg
  MEAN CORPUSCULAR HEMOGLOBIN CONCENTRATION: 37.13 G/DL
  MEAN CORPUSCULAR VOLUME: 61.57 fL
  MONOCYTE: 2.67%
  NEUTROPHIL: 7.67%
  NUCLEATED RED BLOOD CELLS: 0 /100WBC
  PLATELET COUNT: 1170.67 x10E3/uL
  ALANINE AMINOTRANSFERASE: 59 u/L
  ALBUMIN: 4.47 G/DL
  ALKALINE PHOSPHATASE: 424.33 u/L
  ASPARTATE AMINOTRANSFERASE: 93.33 u/L
  BLOOD UREA NITROGEN: 17 mg/dL
  CARBON DIOXIDE: 26.67 mmol/L
  CHLORIDE: 105.67 MEQ/L
  CHOLESTEROL: 58 mg/dL
  CREATINE PHOSPHOKINASE: 497 u/L
  CREATININE: 0.24 mg/dL
  GLUCOSE: 175.33 mg/dL
  LACTATE DEHYDROGENASE: 205.33 u/L
  LIPASE: 9 u/L
  PHOSPHORUS: 12.87 mg/dL
  POTASSIUM: 6.66 MEQ/L
  SODIUM: 144.8 MEQ/L
  TOTAL BILIRUBIN: 0.2 mg/dL
  TOTAL PROTEIN: 6.27 G/DL
  URIC ACID: 1.93 mg/dL
